We go through 25 compounds from patent US20090270394A1, “CYCLYLAMINE DERIVATIVES AS CALCIUM CHANNEL BLOCKERS” (priority 2008, published 2009).

The target of this assay is T1, Human Cav2.2 channels (Homo sapiens, UniProt Q00975).
T1 construct: expressed in transfected cells
The assay is described as follows: Fluorescent assay for Cav2.2 channels using potassium depolarization to initiate channel opening. In kind it is cell-based. The conditions noted are these: for inhibition at 10 µM: 10 μM compound, read-out: Cav 2.2 Activity % Inh at 10 μM; for inhibition at 30 µM: 30 μM compound, read-out: Cav 2.2 Activity % Inh at 30 μM; for IC50: 30 mM K (block of open and inactivated channels), read-out: Cav 2.2 Activity IC50 at 30 mM K. The text has this: Human Cav2.2 channels were stably expressed in HEK293 cells along with alpha2-delta and beta subunits of voltage-gated calcium channels. An inwardly rectifying potassium channel (Kir2.3) was also expressed in these cells to allow more precise control of the cell membrane potential by extracellular potassium concentration. At low bath potassium concentration, the membrane potential is relatively negative, and is depolarized as the bath potassium concentration is raised. In this way, the bath potassium concentration can be used to regulate the voltage-dependent conformations of the channels. […] After the incubation period, Cav2.2 channel opening is triggered by addition of higher concentration of potassium (70 mM final concentration) to further depolarize the cell. The degree of state-dependent block can be estimated from the inhibitory potency of compounds after incubation in different potassium concentrations.
Calcium influx through Cav2.2 channels is determined using a calcium sensitive fluorescent dye in combination with a fluorescent plate reader. Fluorescent changes were measured with either a VIPR (Aurora Instruments) or FLIPR (Molecular Devices) plate reader.
• 1. Seed cells in Poly-D-Lysine Coated 96 or 384-well plate and keep in a 37° C.-10% CO2 incubator overnight • 2. […] Incubate in the dark at 25° C. for 60-70 min • 5. Remove dye, wash cells with 0.1 mL (96-well plate) or 0.06 mL (384-well plate) of 4, 12, 25, or 30 mM Potassium Pre-polarization Buffer (PPB) • 6. […] Incubate in the dark at 25° C. for 30 min • 8. Read cell plate on VIPR instrument, Excitation=480 nm, Emission=535 nm • 9. With VIPR continuously reading, add 0.1 mL (96-well plate) or 0.03 mL (384-well plate) of Depolarization Buffer (DB), which is 2× the final assay concentration, to the cell plate.

T1 sequence (Q00975 whole entry): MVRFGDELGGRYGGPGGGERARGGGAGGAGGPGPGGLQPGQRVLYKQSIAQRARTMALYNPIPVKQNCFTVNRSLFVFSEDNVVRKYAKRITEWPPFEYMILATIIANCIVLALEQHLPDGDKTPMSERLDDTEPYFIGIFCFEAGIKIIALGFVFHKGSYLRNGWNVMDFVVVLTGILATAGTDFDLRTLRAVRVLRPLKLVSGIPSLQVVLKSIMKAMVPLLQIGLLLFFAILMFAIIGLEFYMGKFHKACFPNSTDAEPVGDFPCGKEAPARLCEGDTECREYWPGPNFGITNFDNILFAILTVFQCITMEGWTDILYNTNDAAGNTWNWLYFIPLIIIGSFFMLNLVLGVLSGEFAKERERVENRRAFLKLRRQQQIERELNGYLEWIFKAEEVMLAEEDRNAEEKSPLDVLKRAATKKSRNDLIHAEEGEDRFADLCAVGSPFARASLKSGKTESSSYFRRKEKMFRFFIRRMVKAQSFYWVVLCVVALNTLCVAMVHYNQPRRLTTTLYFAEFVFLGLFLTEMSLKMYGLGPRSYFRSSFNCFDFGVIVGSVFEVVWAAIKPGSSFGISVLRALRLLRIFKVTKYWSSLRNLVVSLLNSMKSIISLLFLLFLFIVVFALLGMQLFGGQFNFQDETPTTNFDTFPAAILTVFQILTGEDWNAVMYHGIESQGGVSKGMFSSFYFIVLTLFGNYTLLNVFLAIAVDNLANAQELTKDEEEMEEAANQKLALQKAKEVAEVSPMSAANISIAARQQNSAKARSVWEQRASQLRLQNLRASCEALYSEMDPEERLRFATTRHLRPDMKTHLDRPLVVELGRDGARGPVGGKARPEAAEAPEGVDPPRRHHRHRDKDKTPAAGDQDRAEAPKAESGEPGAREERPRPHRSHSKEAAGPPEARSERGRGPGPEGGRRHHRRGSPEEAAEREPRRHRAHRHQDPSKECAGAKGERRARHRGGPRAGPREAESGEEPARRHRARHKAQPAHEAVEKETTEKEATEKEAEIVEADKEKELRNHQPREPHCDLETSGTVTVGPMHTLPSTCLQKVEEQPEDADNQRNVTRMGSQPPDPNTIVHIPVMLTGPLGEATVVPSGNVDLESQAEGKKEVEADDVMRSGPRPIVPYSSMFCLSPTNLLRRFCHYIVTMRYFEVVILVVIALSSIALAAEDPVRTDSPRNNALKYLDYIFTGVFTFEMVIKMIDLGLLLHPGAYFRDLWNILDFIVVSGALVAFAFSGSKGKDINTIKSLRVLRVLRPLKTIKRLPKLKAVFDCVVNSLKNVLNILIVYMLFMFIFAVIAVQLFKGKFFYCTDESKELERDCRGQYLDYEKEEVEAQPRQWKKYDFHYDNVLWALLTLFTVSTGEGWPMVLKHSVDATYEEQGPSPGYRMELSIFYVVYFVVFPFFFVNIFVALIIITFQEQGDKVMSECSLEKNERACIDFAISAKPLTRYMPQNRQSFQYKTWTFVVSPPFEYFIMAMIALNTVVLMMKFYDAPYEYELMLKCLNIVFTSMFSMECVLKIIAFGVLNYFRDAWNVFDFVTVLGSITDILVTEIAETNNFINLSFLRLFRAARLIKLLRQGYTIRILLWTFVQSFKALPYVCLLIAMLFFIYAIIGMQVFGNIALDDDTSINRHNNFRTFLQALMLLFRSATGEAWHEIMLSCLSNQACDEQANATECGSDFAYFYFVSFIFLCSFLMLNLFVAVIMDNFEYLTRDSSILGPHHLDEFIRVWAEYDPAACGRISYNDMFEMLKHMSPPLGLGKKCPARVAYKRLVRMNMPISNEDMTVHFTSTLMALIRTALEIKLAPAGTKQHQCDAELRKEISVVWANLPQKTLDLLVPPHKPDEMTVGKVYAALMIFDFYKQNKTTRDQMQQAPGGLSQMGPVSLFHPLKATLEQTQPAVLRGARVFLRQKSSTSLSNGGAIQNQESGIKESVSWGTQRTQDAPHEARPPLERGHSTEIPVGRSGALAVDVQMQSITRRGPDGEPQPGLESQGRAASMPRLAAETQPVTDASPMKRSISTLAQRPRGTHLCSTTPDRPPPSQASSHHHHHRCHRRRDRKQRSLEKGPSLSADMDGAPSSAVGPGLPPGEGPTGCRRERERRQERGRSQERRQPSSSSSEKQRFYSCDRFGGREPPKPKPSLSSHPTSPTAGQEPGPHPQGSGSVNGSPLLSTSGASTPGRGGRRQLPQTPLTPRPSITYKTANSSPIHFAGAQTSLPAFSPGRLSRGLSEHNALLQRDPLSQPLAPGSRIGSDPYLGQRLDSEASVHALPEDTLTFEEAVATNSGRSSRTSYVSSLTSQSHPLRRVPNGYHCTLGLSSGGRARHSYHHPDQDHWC
T1 sequence (P54289 25-1103 partner): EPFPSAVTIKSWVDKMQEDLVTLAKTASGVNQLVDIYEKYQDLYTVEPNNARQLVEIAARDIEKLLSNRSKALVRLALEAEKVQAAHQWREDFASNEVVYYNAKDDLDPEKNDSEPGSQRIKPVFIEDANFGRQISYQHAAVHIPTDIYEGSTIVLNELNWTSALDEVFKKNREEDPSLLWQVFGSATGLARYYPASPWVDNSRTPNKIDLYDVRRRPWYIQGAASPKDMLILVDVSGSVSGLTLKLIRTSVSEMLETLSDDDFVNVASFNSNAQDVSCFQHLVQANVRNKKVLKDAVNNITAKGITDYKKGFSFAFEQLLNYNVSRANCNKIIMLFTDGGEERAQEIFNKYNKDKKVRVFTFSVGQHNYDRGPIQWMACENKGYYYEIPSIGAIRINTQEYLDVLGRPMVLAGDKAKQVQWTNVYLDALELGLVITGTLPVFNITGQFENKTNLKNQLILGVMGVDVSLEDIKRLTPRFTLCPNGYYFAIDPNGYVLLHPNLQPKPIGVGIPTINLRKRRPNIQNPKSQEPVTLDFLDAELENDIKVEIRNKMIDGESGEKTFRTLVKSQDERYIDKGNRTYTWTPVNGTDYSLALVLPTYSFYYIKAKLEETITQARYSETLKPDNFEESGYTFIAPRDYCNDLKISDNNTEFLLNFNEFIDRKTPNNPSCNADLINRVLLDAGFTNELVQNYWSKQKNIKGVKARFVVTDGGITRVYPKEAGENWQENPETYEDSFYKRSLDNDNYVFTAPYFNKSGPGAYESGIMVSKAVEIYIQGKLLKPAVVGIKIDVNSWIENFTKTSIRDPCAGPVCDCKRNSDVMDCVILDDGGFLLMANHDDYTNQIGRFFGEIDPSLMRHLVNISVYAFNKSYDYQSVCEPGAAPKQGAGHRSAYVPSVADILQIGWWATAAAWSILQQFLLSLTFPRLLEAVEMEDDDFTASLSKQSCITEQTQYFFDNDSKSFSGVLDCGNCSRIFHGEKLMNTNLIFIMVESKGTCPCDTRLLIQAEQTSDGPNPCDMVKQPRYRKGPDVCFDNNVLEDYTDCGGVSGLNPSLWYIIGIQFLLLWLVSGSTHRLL
T1 sequence (P54284 whole entry partner): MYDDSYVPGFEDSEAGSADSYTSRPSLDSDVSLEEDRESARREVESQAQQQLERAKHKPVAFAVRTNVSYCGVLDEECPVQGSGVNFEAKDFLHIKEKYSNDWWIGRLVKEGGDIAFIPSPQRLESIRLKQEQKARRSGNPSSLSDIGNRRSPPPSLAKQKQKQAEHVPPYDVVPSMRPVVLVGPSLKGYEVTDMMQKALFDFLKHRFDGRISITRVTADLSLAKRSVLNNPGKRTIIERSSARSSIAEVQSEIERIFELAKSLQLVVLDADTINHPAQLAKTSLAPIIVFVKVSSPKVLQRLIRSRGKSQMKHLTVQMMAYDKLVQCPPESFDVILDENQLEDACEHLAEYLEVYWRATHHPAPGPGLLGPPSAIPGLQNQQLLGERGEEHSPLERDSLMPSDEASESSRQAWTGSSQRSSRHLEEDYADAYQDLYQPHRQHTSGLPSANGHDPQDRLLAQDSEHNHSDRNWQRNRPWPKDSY

For `CC(C)(C(N)=O)c1cccc(C(=O)NC2(C(=O)NCc3cccc(C(F)(F)F)c3)CCCCC2)c1` [Compound 121, 3-(1-amino-2-methyl-1-oxopropan-2-yl)-N-(1-(3-(trifluoromethyl)benzylcarbamoyl)cyclohexyl)benzamide], the inhibition at 10 µM came out at 18.6% and the inhibition at 30 µM came to 70.8%.

On to `Cc1cc(CNC(=O)C2(NC(=O)c3cc(C(C)(C)C)c(O)c(C(C)(C)C)c3)CC2)nn1C` [Compound 2, 3,5-di-tert-butyl-N-(1-((1,5-dimethyl-1H-pyrazol-3-yl)methylcarbamoyl)cyclopropyl)-4-hydroxybenzamide], for which the inhibition at 10 µM was determined as 99%, the inhibition at 30 µM was 104% and the 50% inhibitory concentration (IC50) worked out at 1410 nM.

`CC(C)(C)c1cc(C(=O)NC2(C(=O)NCCCN3CCOCC3)CCCCC2)cc(C(C)(C)C)c1` [Compound 102, 3,5-di-tert-butyl-N-(1-(3-morpholinopropylcarbamoyl)cyclohexyl)benzamide]: the IC50 was 253 nM.

Regarding `CC(C)(C)c1cc(CNC2(C(=O)NCc3ccccc3)CCCCC2)cc(C(C)(C)C)c1` [Compound 57, N-benzyl-1-(3,5-di-tert-butylbenzylamino)cyclohexanecarboxamide], the inhibition at 10 µM was determined as 99.8%, the inhibition at 30 µM worked out at 101% and the IC50 stood at 868 nM.

With `CN(C)Cc1ccc(CNC(=O)C2(NC(=O)c3cc(C(C)(C)C)nc(C(C)(C)C)c3)CCOCC2)cc1` [Compound 23, 2,6-di-tert-butyl-N-(4-(4-((dimethylamino)methyl)benzylcarbamoyl)tetrahydro-2H-pyran-4-yl)isonicotinamide], the inhibition at 10 µM is 87.4%.

In the case of `CC(C)(C)c1cc(C(=O)NC2(C(=O)NCc3nccs3)CCCCC2)cc(C(C)(C)C)c1O` [Compound 13, 3,5-di-tert-butyl-4-hydroxy-N-(1-(thiazol-2-ylmethylcarbamoyl)cyclohexyl)benzamide], the inhibition at 10 µM was found to be 96.9%, the inhibition at 30 µM is 99.8% and the IC50 came to 34.1 nM.

With `COc1ccc(CNC(=O)C2(NC(=O)c3cc(C(C)(C)C)c(OC)c(C(C)(C)C)c3)CCOCC2)cc1` [Compound 114, 4-(3,5-di-tert-butyl-4-methoxybenzamido)-N-(4-methoxybenzyl)tetrahydro-2H-pyran-4-carboxamide], the inhibition at 10 µM stood at 90.8%, the inhibition at 30 µM came out at 92.4% and the IC50 worked out at 32.4 nM.

With `COc1ccc(CNC(=O)C2(NC(=O)c3cc(C(C)(C)C)c(O)c(C(C)(C)C)c3)CC2)cc1` [Compound 109, 3,5-di-tert-butyl-4-hydroxy-N-(1-(4-methoxybenzylcarbamoyl)cyclopropyl)benzamide], the inhibition at 10 µM stood at 29.8%, the inhibition at 30 µM was 40% and the half-inhibitory concentration (IC50) was determined as 87.7 nM.

On to `Cc1cc(CNC(=O)C2(NC(=O)c3cc(C(C)(C)C)cc(C(C)(C)C)c3)CCCCC2)nn1C` [Compound 68, 3,5-di-tert-butyl-N-(1-((1,5-dimethyl-1H-pyrazol-3-yl)methylcarbamoyl)cyclohexyl)benzamide], for which the inhibition at 10 µM is 98.4%, the inhibition at 30 µM was 94% and the IC50 came to 64.9 nM.

Turning to `CC(C)(C)c1cc(C(=O)NC2(C(=O)NCc3ccc(F)cc3F)CCCCC2)cc(C(C)(C)C)c1` [Compound 50, 3,5-di-tert-butyl-N-(1-(2,4-difluorobenzylcarbamoyl)cyclohexyl)benzamide], the inhibition at 10 µM was determined as 99.6%, the inhibition at 30 µM is 102% and the IC50 is 80.3 nM.

With `CC(C)(C)c1cc(C(=O)NC2(C(=O)NCc3ccccc3)CCNCC2)cc(C(C)(C)C)n1` [Compound 64, N-(4-(benzylcarbamoyl)piperidin-4-yl)-2,6-di-tert-butylisonicotinamide], the inhibition at 10 µM turned out to be 69.5% and the inhibition at 30 µM was 104%.

With `CC(C)(C)c1cc(NC(=O)C2(NCc3ccccc3)CCCCC2)cc(C(C)(C)C)c1` [Compound 43, 1-(benzylamino)-N-(3,5-di-tert-butylphenyl)cyclohexanecarboxamide], the inhibition at 10 µM was found to be 76.2% and the inhibition at 30 µM came out at 82.5%.

As to `COc1c(C(C)(C)C)cc(C(=O)NC2(C(=O)NCc3cc(C)on3)CCCCC2)cc1C(C)(C)C` [Compound 86, 3,5-di-tert-butyl-4-methoxy-N-(1-((5-methylisoxazol-3-yl)methylcarbamoyl)cyclohexyl)benzamide], the inhibition at 10 µM came out at 99.1%, the inhibition at 30 µM was 104% and the 50% inhibitory concentration (IC50) was 9.57 nM.

Turning to `COc1c(C(C)(C)C)cc(C(=O)NC2(C(=O)N3CCN(c4ccccc4)CC3)CCCCC2)cc1C(C)(C)C` [Compound 82, 3,5-di-tert-butyl-4-methoxy-N-(1-(4-phenylpiperazine-1-carbonyl)cyclohexyl)benzamide], the inhibition at 10 µM amounted to 92.6%, the inhibition at 30 µM turned out to be 101% and the 50% inhibitory concentration (IC50) was 70.9 nM.

Take `CC(C)(C)c1cc(C(=O)NC2(C(=O)NCc3ccc(F)cc3)CCCCC2)cc(C(C)(C)C)c1` [Compound 49, 3,5-di-tert-butyl-N-(1-(4-fluorobenzylcarbamoyl)cyclohexyl)benzamide]: the inhibition at 10 µM was found to be 103%, the inhibition at 30 µM turned out to be 91.6% and the 50% inhibitory concentration (IC50) is 44.2 nM.

As to `COc1ccc(CNC(=O)C2(NC(=O)Cc3cc(C(C)(C)C)c(OC)c(C(C)(C)C)c3)CCCCC2)cc1` [Compound 18, 1-(2-(3,5-di-tert-butyl-4-methoxyphenyl)acetamido)-N-(4-methoxybenzyl)cyclohexanecarboxamide], the inhibition at 10 µM worked out at 40.7% and the inhibition at 30 µM was determined as 34.5%.

As for `Cc1cc(CNC(=O)C2(NC(=O)c3cc(C(C)(C)C)c(O)c(C(C)(C)C)c3)CCCCC2)no1` [Compound 12, 3,5-di-tert-butyl-4-hydroxy-N-(1-((5-methylisoxazol-3-yl)methylcarbamoyl)cyclohexyl)benzamide], the inhibition at 10 µM was determined as 98.6%, the inhibition at 30 µM was found to be 101% and the 50% inhibitory concentration (IC50) was determined as 55 nM.

For `CC(C)(C)c1cc(C(=O)NC2(C(=O)O)CCCCC2)cc(C(C)(C)C)c1` [Compound 34, 1-(3,5-di-tert-butylbenzamido)cyclohexanecarboxylic acid], the inhibition at 10 µM came out at 68.2% and the inhibition at 30 µM worked out at 82.3%.

With `Cc1cnc(CNC(=O)C2(NC(=O)c3cc(C(C)(C)C)c(O)c(C(C)(C)C)c3)CCCCC2)cn1` [Compound 5, 3,5-di-tert-butyl-4-hydroxy-N-(1-((5-methylpyrazin-2-yl)methylcarbamoyl)cyclohexyl)benzamide], the inhibition at 10 µM worked out at 94.6%, the inhibition at 30 µM was 96.4% and the 50% inhibitory concentration (IC50) was found to be 127 nM.

For the compound `CC(C)(C)c1cc(C(=O)NC2(C(=O)NCc3cccc(C(F)(F)F)c3)CCCCC2)cc(C(C)(C)C)c1` [Compound 62, 3,5-di-tert-butyl-N-(1-(3-(trifluoromethyl)benzylcarbamoyl)cyclohexyl)benzamide], the inhibition at 10 µM was found to be 94.3%, the inhibition at 30 µM turned out to be 88.1% and the IC50 amounted to 99.1 nM.

As to `Cc1cc(CNC(=O)C2(NC(=O)c3cc(C(C)(C)C)cc(C(C)(C)C)c3)CCCCC2)no1` [Compound 51, 3,5-di-tert-butyl-N-(1-((5-methylisoxazol-3-yl)methylcarbamoyl)cyclohexyl)benzamide], the inhibition at 10 µM is 106%, the inhibition at 30 µM came out at 106% and the IC50 worked out at 63.5 nM.

Consider `Cc1cnc(CNC(=O)C2(NC(=O)c3cc(C(C)(C)C)nc(C(C)(C)C)c3)CC2)cn1` [Compound 11, 2,6-di-tert-butyl-N-(1-((5-methylpyrazin-2-yl)methylcarbamoyl)cyclopropyl)isonicotinamide], for which the inhibition at 10 µM amounted to 91.9%, the inhibition at 30 µM was found to be 92.2% and the IC50 was determined as 336 nM.

Regarding `COc1c(C(C)(C)C)cc(CC(=O)NC2(C(=O)NCc3cccc(C(F)(F)F)c3)CCCCC2)cc1C(C)(C)C` [Compound 15, 1-(2-(3,5-di-tert-butyl-4-methoxyphenyl)acetamido)-N-(3-(trifluoromethyl)benzyl)cyclohexanecarboxamide], the inhibition at 10 µM amounted to 48.2% and the inhibition at 30 µM was found to be 65.9%.

Consider `COc1c(C(C)(C)C)cc(C(=O)NC2(C(=O)NCc3ccc(S(C)(=O)=O)cc3)CCCCC2)cc1C(C)(C)C` [Compound 108, 3,5-di-tert-butyl-4-methoxy-N-(1-(4-(methylsulfonyl)benzylcarbamoyl)cyclohexyl)benzamide], for which the concentration for half-maximal inhibition (IC50) was 81.6 nM.

`COc1c(C(C)(C)C)cc(C(=O)NC2(C(=O)N3CCOCC3)CCCCC2)cc1C(C)(C)C` [Compound 29, 3,5-di-tert-butyl-4-methoxy-N-(1-(morpholine-4-carbonyl)cyclohexyl)benzamide]: the inhibition at 10 µM turned out to be 85.8%, the inhibition at 30 µM stood at 90.5% and the IC50 was found to be 67.6 nM.
